# Biological target: human PKR1 receptors (Homo sapiens (Human), UniProt Q8TCW9)
# Assay: PKR1 antagonist assay: block of PK1-mediated intracellular calcium release (FLIPR Tetra)
# Format: cell-based
# Details: RBL2H3 cells expressing human PKR1; stimulation with PK1 at EC80; calcium fluorescence
# Experimental: Prokineticin receptor 1 (PKR1) antagonists may be functionally assessed by measurement of change in intracellular calcium levels induced by Gq mediated increase in inositol triphosphate (IP3) levels. The ability of a compound to block the intracellular release of calcium mediated by PK1 in RBL2H3 cells expressing human PKR1 receptors is determined as a measure of the compound's antagonist activity in vitro.
# Approximately 10,000 cells per assay well are seeded in normal culture medium in a 384 well plate (Corning). Twenty-four hours after seeding, the cells are loaded with a calcium sensitive fluorescent dye by replacing the culture medium with assay buffer (1× Hanks buffered saline, 25 mM HEPES, 0.1% w/v fatty acid free BSA (bovine serum albumin), pH 7.4) containing 1 mM probenecid and 1× Calcium 5 Reagent (Molecular Devices). Cells are incubated at 37° C. for 1 hour to allow for dye uptake.
# To test for antagonist activity, test compounds at a final concentration range between 0.32 nM-10 μM (diluted in assay buffer) are added to the assay wells and allowed to incubate for 10 minutes prior to stimulation with PK1. After incubation with test compounds the assay plate is placed in a FLIPR Tetra (Molecular Devices) and PK1 (diluted in assay buffer) is added at the determined EC80 concentration (final). Ligand-dependent changes in intracellular calcium levels are determined by measuring changes in fluorescence of the dye at […] following excitation at 485 nm.
# human PKR1 receptors, sequence (Q8TCW9 whole entry): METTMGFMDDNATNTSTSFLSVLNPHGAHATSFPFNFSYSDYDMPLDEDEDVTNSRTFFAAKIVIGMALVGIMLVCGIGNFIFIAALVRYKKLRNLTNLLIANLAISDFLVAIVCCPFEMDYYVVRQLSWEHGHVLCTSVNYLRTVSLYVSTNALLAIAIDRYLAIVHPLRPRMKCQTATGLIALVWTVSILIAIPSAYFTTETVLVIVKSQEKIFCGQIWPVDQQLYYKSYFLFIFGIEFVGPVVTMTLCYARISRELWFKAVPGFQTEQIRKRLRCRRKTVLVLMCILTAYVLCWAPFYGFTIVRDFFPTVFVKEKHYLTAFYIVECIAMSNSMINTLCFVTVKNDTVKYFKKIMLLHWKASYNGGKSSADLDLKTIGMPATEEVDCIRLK
row,IC50,SMILES
1,160 nM,"COc1ccc(C2CCCN(C(=O)c3cnnc(N(C)C)c3)C2)c(C)c1 (stereo not shown) [Example 80, 5-{[3-(4-Methoxy-2-methylphenyl)piperidin-1-yl]carbonyl}-N,N-dimethylpyridazin-3-amine]"
2,130 nM,"CNc1cc(C(=O)N2CCCC(c3ccc(OC)cc3C(F)(F)F)C2)cnn1 (stereo not shown) [Example 81, 5-({3-[4-Methoxy-2-(trifluoromethyl)phenyl]piperidin-1-yl}carbonyl)-N-methylpyridazin-3-amine]"
3,210 nM,"COc1ccc(C2CCCN(C(=O)c3cnnc(N(C)C)c3)C2)c(C(F)(F)F)c1 (stereo not shown) [Example 82, 5-({3-[4-Methoxy-2-(trifluoromethyl)phenyl]piperidin-1-yl}carbonyl)-N,N-dimethylpyridazin-3-amine]"
4,170 nM,"CCOc1cc(Cl)ccc1C1CCCN(C(=O)c2cnnc(NC)c2)C1 (stereo not shown) [Example 83, 5-{[3-(4-Chloro-2-ethoxyphenyl)piperidin-1-yl]carbonyl}-N-methylpyridazin-3-amine]"
5,90 nM,"CCOc1cc(Cl)ccc1C1CCCN(C(=O)c2cnnc(N(C)C)c2)C1 (stereo not shown) [Example 84, 5-{[3-(4-Chloro-2-ethoxyphenyl)piperidin-1-yl]carbonyl}-N,N-dimethylpyridazin-3-amine]"
6,1140 nM,"Cc1cc(C(=O)N2CCCC(c3ccc(Cl)cc3C)C2)cnn1 (stereo not shown) [Example 85, 5-{[3-(4-Chloro-2-methylphenyl)piperidin-1-yl]carbonyl}-3-methylpyridazine]"
7,200 nM,"Cc1cc(Cl)ccc1C1CCCN(C(=O)c2cn(C)nc2C)C1 (stereo not shown) [Example 87, 3-(4-Chloro-2-methylphenyl)-1-[(1,3-dimethyl-1H-pyrazol-4-yl)carbonyl]piperidine]"
8,1820 nM,"Cc1nn(C)cc1C(=O)N1CCCC(c2ccc(Cl)cc2)C1 (stereo not shown) [Example 88, 3-(4-Chlorophenyl)-1-[(1,3-dimethyl-1H-pyrazol-4-yl)carbonyl]piperidine]"
9,1280 nM,"Cn1cc(C(=O)N2CCCC(c3ccc(Cl)cc3)C2)cn1 (stereo not shown) [Example 89, 3-(4-Chlorophenyl)-1-[(1-methyl-1H-pyrazol-4-yl)carbonyl]piperidine]"
10,660 nM,"CCn1cc(C(=O)N2CCCC(c3ccc(Cl)cc3)C2)cn1 (stereo not shown) [Example 90, 3-(4-Chlorophenyl)-1-[(1-ethyl-1H-pyrazol-4-yl)carbonyl]piperidine]"
11,960 nM,"CC(C)n1cc(C(=O)N2CCCC(c3ccc(Cl)cc3)C2)cn1 (stereo not shown) [Example 91, 3-(4-Chlorophenyl)-1-{[1-(propan-2-yl)-1H-pyrazol-4-yl]carbonyl}piperidine]"
12,110 nM,"CCn1cc(C(=O)N2CCCC(c3ccc(Cl)cc3C)C2)cn1 (stereo not shown) [Example 92, 3-(4-Chloro-2-methylphenyl)-1-[(1-ethyl-1H-pyrazol-4-yl)carbonyl]piperidine]"
13,180 nM,"Cc1cc(Cl)ccc1C1CCCN(C(=O)c2cnn(C(C)C)c2)C1 (stereo not shown) [Example 93, 3-(4-Chloro-2-methylphenyl)-1-{[1-(propan-2-yl)-1H-pyrazol-4-yl]carbonyl}piperidine]"
14,170 nM,"Cc1cc(Cl)ccc1C1CCCN(C(=O)c2cnn(C)c2)C1 (stereo not shown) [Example 94, 3-(4-Chloro-2-methylphenyl)-1-[(1-methyl-1H-pyrazol-4-yl)carbonyl]piperidine]"
15,150 nM,"Cc1cc(Cl)ccc1C1CCCN(C(=O)c2cnn(C)c2N)C1 (stereo not shown) [Example 95, 4-{[3-(4-Chloro-2-methylphenyl)piperidin-1-yl]carbonyl}-1-methyl-1H-pyrazol-5-amine]"
16,2440 nM,"O=C(c1cn[nH]c1)N1CCCC(c2ccc(Cl)cc2C(F)(F)F)C1 (stereo not shown) [Example 96, 3-[4-Chloro-2-(trifluoromethyl)phenyl]-1-[(1H-pyrazol-4-yl)carbonyl]piperidine]"

row,IC50,SMILES
1,100 nM,"Cn1cc(C(=O)N2CCCC(c3ccc(Cl)cc3C(F)(F)F)C2)cn1 (stereo not shown) [Example 97, 3-[4-Chloro-2-(trifluoromethyl)phenyl]-1-[(1-methyl-1H-pyrazol-4-yl)carbonyl]piperidine]"
2,170 nM,"CCn1cc(C(=O)N2CCCC(c3ccc(Cl)cc3C(F)(F)F)C2)cn1 (stereo not shown) [Example 98, 3-[4-Chloro-2-(trifluoromethyl)phenyl]-1-[(1-ethyl-1H-pyrazol-4-yl)carbonyl]piperidine]"
3,330 nM,"CC(C)n1cc(C(=O)N2CCCC(c3ccc(Cl)cc3C(F)(F)F)C2)cn1 (stereo not shown) [Example 99, 3-[4-Chloro-2-(trifluoromethyl)phenyl]-1-{[1-(propan-2-yl)-1H-pyrazol-4-yl]carbonyl}piperidine]"
4,540 nM,"Cn1cc(C(=O)N2CCCC(c3ccc(Cl)cc3C(F)(F)F)C2)c(N)n1 (stereo not shown) [Example 100, 4-({3-[4-Chloro-2-(trifluoromethyl)phenyl]piperidin-1-yl}carbonyl)-1-methyl-1H-pyrazol-3-amine]"
5,1030 nM,"COc1ccc(C2CCCN(C(=O)c3cn(C)nc3C)C2)c(C)c1 (stereo not shown) [Example 101, 1-[(1,3-Dimethyl-1H-pyrazol-4-yl)carbonyl]-3-(4-methoxy-2-methylphenyl)piperidine]"
6,1540 nM,"COc1ccc(C2CCCN(C(=O)c3cn(C)nc3N)C2)c(C)c1 (stereo not shown) [Example 102, 4-{[3-(4-Methoxy-2-methylphenyl)piperidin-1-yl]carbonyl}-1-methyl-1H-pyrazol-3-amine]"
7,490 nM,"Cc1nn(C)cc1C(=O)N1CCCC(c2ccc(Cl)cc2C(F)(F)F)C1 (stereo not shown) [Example 103, 3-[4-Chloro-2-(trifluoromethyl)phenyl]-1-[(1,3-dimethyl-1H-pyrazol-4-yl)carbonyl]piperidine]"
8,420 nM,"CN(C)c1cc(C(=O)N2C=C(c3ccc(Cl)cc3)CCC2)ccn1 [Example 104, 4-{[5-(4-Chlorophenyl)-1,2,3,4-tetrahydropyridin-1-yl]carbonyl}-N,N-dimethylpyridin-2-amine]"
9,270 nM,"Cc1cc(Cl)ccc1C1=CN(C(=O)c2ccnc(N(C)C)c2)CCC1 [Example 105, 4-{[5-(4-Chloro-2-methylphenyl)-1,2,3,4-tetrahydropyridin-1-yl]carbonyl}-N,N-dimethylpyridin-2-amine]"
10,1230 nM,"CN(C)c1cc(C(=O)N2C=C(c3ccc(Cl)cc3Cl)CCC2)ccn1 [Example 106, 4-{[5-(2,4-Dichlorophenyl)-1,2,3,4-tetrahydropyridin-1-yl]carbonyl}-N,N-dimethylpyridin-2-amine]"
11,2970 nM,"CN(C)c1cc(C(=O)N2CCCCC(c3ccccc3)C2)ccn1 (stereo not shown) [Example 107, N,N-Dimethyl-4-[(3-phenylazepan-1-yl)carbonyl]pyridin-2-amine]"
12,3230 nM,"CN(C)c1cc(C(=O)N2CCCCC(c3ccc(Cl)cc3)C2)ccn1 (stereo not shown) [Example 108, 4-{[3-(4-Chlorophenyl)azepan-1-yl]carbonyl}-N,N-dimethylpyridin-2-amine]"
13,960 nM,"COc1ccc(C2CCCCN(C(=O)c3ccnc(N(C)C)c3)C2)cc1 (stereo not shown) [Example 109, 4-{[3-(4-Methoxyphenyl)azepan-1-yl]carbonyl}-N,N-dimethylpyridin-2-amine]"
14,450 nM,"CNc1cc(C(=O)N2CCCCC(c3ccc(OC)cc3)C2)ccn1 (stereo not shown) [Example 110, 4-{[3-(4-Methoxyphenyl)azepan-1-yl]carbonyl}-N-methylpyridin-2-amine]"
15,430 nM,"CNc1cc(C(=O)N2CCCCC(c3ccc(Cl)cc3)C2)ccn1 (stereo not shown) [Example 111, 4-{[3-(4-Chlorophenyl)azepan-1-yl]carbonyl}-N-methylpyridin-2-amine]"
